Assay results from US20220220041A1, “USE OF UREA AS AN ANTIMICROBIAL ADDITIVE IN AN AQUEOUS SUSPENSION” (Omya International AG, priority 2019, published 2022).

How the values were obtained:
[1] = system: non-sterile calcium carbonate slurry (H90), environmental bacteria; test: Example 1 preservation efficacy: sterile H90 slurry with dry urea, up to three inoculations with non-sterile H90 slurry, TVC; assay type: cell-based; conditions: for TVC cfu/ml 2nd Inoculation / TVC cfu/ml 3rd Inoculation / TVC cfu/ml 1st Inoculation: calcium carbonate 75%, water 25% w/w, H90 slurry; for TVC cfu/ml 1st Inoculation: 3 days at 30° C. after inoculation
Protocol: (§1) All quoted bacterial counts (Total viable counts (TVC) values), unless otherwise indicated, are given in cfu/ml and determined after at least 2 days following plate-out and incubation at 30° C. and in accordance with the counting method described in “Bestimmung von aerobe mesophilen Keimen”, Schweizerisches Lebensmittelbuch, chapter 56, section 7.01, edition of 1985, revised version of 1988.
(§2) Unless otherwise stated, per tryptic soy agar plate (TSA, prepared using BD 236950) 0.1 ml of a solution or suspension is plated. Counts from 10000 cfu/ml to 99999 cfu/ml are reported as >1E4 cfu/ml. Counts from 100000 cfu/ml to 999999 cfu/ml are reported as >1E5 cfu/ml. Counts above 1000000 cfu/ml are reported as >1E6 cfu/ml.
Non-sterile slurries (H60 or H90) contain contamination with environmental bacteria at a TVC>100000 cfu/ml. The contamination originates spontaneously and a bacterial burden of at least>100000 cfu/ml is confirmed prior use as inoculum by TVC. The following bacterial species are known to occur, as identified by 16S RNA sequencing or MALDI-TOF-MS analysis: Rhizobium radiobacter, Brevundimonas intermedia, Brevundimonas diminiuta, Sphingomonas sp., Pseudomonas stutzeri, Pseudomonas sp., Comomonas aquatic.
50 g sterile slurry H90 with a solid content of 75 wt.-%, based on the total weight of the H90 slurry is supplemented with different concentrations of dry urea. The samples are then stored for 3 days at 30° C. After the storage, the samples are inoculated with 1 ml non-sterile calcium carbonate slurry (H90), incubated for 3 days at 30° C. and the TVC is determined. Samples are further inoculated with 1 ml non-sterile calcium carbonate slurry (H90). Up to three inoculations are performed.

Pseudomonas putida [2] = test: Example 2 preservation efficacy: H60 slurry with 61 wt.-% urea solution, P. putida inoculum, TVC; assay type: cell-based; conditions: 30° C.
Protocol: as §1, §2
(§3) For the preparation of inoculum with a single bacterial species (for example Escherichia coli (DSMZ 46295) or Pseudomonas putida), bacteria are spread onto Tryptic soy broth agar (BD, 236950) by dilution streaking followed by incubation at 30° C. for at least 24 h until colonies appear. Overnight cultures are generated by inoculation of 3 ml Tryptic soy broth (Fluka 22092) with a single colony followed incubation with agitation at […] at 30° C. for 24 h.
50 g sterile slurry H60 with a solid content of 76.5 wt.-%, based on the total weight of the H60 slurry is supplemented with different amounts of 61 wt.-% urea solution or water. The samples are then inoculated with 1 ml non-sterile calcium carbonate slurry (H60), 1 ml non-sterile calcium carbonate slurry (H90), 0.02 ml overnight culture of Escherichia coli (DSMZ 46295) and 0.02 ml overnight culture of Pseudomonas putida. The control samples are not inoculated. Samples are incubated at 30° C. and the TVC and pH are determined at various time points (0 day, 1 day, 4, days, 8 days, 9 days and/or 13 days).

[3] = pH measurement of the suspension; assay type: physicochemical; conditions: 30° C.; for pH Day 8: Table 2; for pH Day 4: Table 3; for pH Day 11: Table 5; for pH Day 16: industrial grade urea 5.5%, calcium carbonate 69%, water 25.5% w/w
Protocol: The pH of a suspension is measured at 25° C. using a Mettler Toledo Seven Easy pH meter and a Mettler Toledo InLab® Expert Pro pH electrode. A three point calibration (according to the segment method) of the instrument is first made using commercially available buffer solutions having pH values of 4, 7 and 10 at 20° C. (from Aldrich). The reported pH values are the endpoint values detected by the instrument (the endpoint is when the measured signal differs by less than 0.1 mV from the average over the last 6 s).

[4] = Example 5: addition of dry urea to H60 slurry, viscosity and stability of the product; assay type: physicochemical; conditions: 2.68 wt.-% urea and 73 wt.-% calcium carbonate
Protocol: The Brookfield viscosity is measured by a Brookfield DV-III Ultra viscometer at 20° C.±3° C. at 100 rpm using an LV-3 spindle and is specified in mPa·s. Once the spindle has been inserted into the sample, the measurement is started with a constant rotating speed of 100 rpm.
1 kg calcium carbonate slurry (H60) with a solid content of 75 wt.-%, based on the total weight of the H60 slurry is stirred at approximately 500 rotations per minute (rpm) and 27.5 g dry urea is added slowly during agitation, leading to 2.68 wt.-% urea and 73 wt.-% calcium carbonate, based on the total weight of the obtained slurry. The blend is further mixed for 30 minutes at slow speed (<500 rpm).

Pseudomonas putida [5] = test: Example 3 preservation efficacy: H60 slurry with industrial grade urea solution, P. putida inoculum, TVC; assay type: cell-based; conditions: industrial grade urea 5.5%, calcium carbonate 69%, water 25.5% w/w, 30° C.
Protocol: as §1, §2, §3
50 g sterile calcium carbonate slurry (H60) with a solid content of 77.3 wt.-%, based on the total weight of the H60 slurry is supplemented with industrial grade 50% (w/w) urea solution (Yara Canda Inc.) or water to different final concentrations. The industrial grade contained natural resident (i.e. bacteria in a non-growing state) bacteria. The bacterial of the industrial urea burden is 5 cfu/3 ml as determined by TVC. The species are identified by characterizing the grown colonies from the TVC by 16 S RNA sequencing, known to the person skilled in the art.
The samples are further artificially inoculated with 1 ml non-sterile calcium carbonate slurry (H60), 1 ml non-sterile calcium carbonate slurry (H90), 0.02 ml overnight culture of Escherichia coli (DSMZ 46295) and 0.02 ml overnight culture Pseudomonas putida. The control sample are not inoculated. […]

[6] = Table 2, urea 2.75%, calcium carbonate 73.1%, water 24.15% w/w
[7] = Table 2, urea 7.6%, calcium carbonate 67.1%, water 25.3% w/w
[8] = Table 3, urea 0.65%, calcium carbonate 75.7%, water 23.65% w/w
[9] = Table 3, urea 2.75%, calcium carbonate 73.1%, water 24.15% w/w
[10] = urea 2.75%, calcium carbonate 73.1%, water 24.15% w/w, inoculum none

Compound: NC(N)=O [urea]
- preservation of calcium carbonate slurries from bacterial growth ([1]; low urea concentrations (table 1: 0.025-0.075%)): not able to preserve
- TVC cfu/ml 2nd Inoculation ([1]; urea 0.025%): >1E6 cfu/ml
- TVC cfu/ml 3rd Inoculation ([1]; urea 0.025%): >1E6 cfu/ml
- TVC cfu/ml 1st Inoculation ([1]; urea 0.025%): >1E6 cfu/ml
- TVC cfu/ml 2nd Inoculation ([1]; urea 0.05%): >1E6 cfu/ml
- TVC cfu/ml 3rd Inoculation ([1]; urea 0.05%): >1E6 cfu/ml
- TVC cfu/ml 1st Inoculation ([1]; urea 0.05%): >1E6 cfu/ml
- TVC cfu/ml 2nd Inoculation ([1]; urea 0.075%): >1E6 cfu/ml
- TVC cfu/ml 3rd Inoculation ([1]; urea 0.075%): >1E6 cfu/ml
- TVC cfu/ml 1st Inoculation ([1]; urea 0.075%): >1E6 cfu/ml
- TVC cfu/ml Day 1 (Pseudomonas putida [2]; [6]): <100 cfu/ml
- TVC cfu/ml Day 4 (Pseudomonas putida [2]; [6]): <100 cfu/ml
- TVC cfu/ml Day 8 (Pseudomonas putida [2]; [6]): 100 cfu/ml
- TVC cfu/ml Day 13 (Pseudomonas putida [2]; [6]): <100 cfu/ml
- TVC cfu/ml Day 1 (Pseudomonas putida [2]; [7]): <100 cfu/ml
- TVC cfu/ml Day 4 (Pseudomonas putida [2]; [7]): <100 cfu/ml
- TVC cfu/ml Day 8 (Pseudomonas putida [2]; [7]): <100 cfu/ml
- TVC cfu/ml Day 13 (Pseudomonas putida [2]; [7]): <100 cfu/ml
- TVC cfu/ml Day 1 (Pseudomonas putida [2]; [8]): >1E5 cfu/ml
- TVC cfu/ml Day 4 (Pseudomonas putida [2]; [8]): >1E5 cfu/ml
- TVC cfu/ml Day 1 (Pseudomonas putida [2]; [9]): <100 cfu/ml
- TVC cfu/ml Day 4 (Pseudomonas putida [2]; [9]): <100 cfu/ml
- TVC cfu/ml Day 9 (Pseudomonas putida [2]; [9]): <100 cfu/ml
- pH Day 8 [3, 10]: 9.16
- pH Day 8 ([3]; urea 7.6%, calcium carbonate 67.1%, water 25.3% w/w, inoculum none): 9.25
- pH Day 4 ([3]; urea 0.65%, calcium carbonate 75.7%, water 23.65% w/w, inoculum none): 9.06
- pH Day 4 ([3]; urea 1.28%, calcium carbonate 74.9%, water 23.82% w/w, inoculum none): 9.05
- pH Day 4 [3, 10]: 9.11
- pH Day 11 ([3]; urea 0.40%, calcium carbonate 75.61%, water 23.99% w/w, inoculum H60): 9.05
- pH Day 11 ([3]; urea 1.10%, calcium carbonate 75.48%, water 23.42% w/w, inoculum H60): 9.25
- pH Day 11 ([3]; urea 2.80%, calcium carbonate 75.21%, water 21.98% w/w, inoculum H60): 9.10
- pH Day 16 ([3]; inoculum E. coli): 9.02
- pH Day 16 ([3]; inoculum H60): 9.00
- pH Day 16 ([3]; inoculum H90): 8.97
- pH Day 16 ([3]; inoculum P. putida): 9.04
- pH Day 16 ([3]; inoculum none): 9.02
- formation of clumps after addition of dry urea [4]: No clumps were formed
- viscosity after addition of dry urea [4]: does not increase
- stability of the product ([4]; 7 days at room temperature and 40° C.): remains stable
- TVC cfu/ml Day 1 (Pseudomonas putida [5]): <100 cfu/ml
- TVC cfu/ml Day 4 (Pseudomonas putida [5]): <100 cfu/ml
- TVC cfu/ml Day 8 (Pseudomonas putida [5]): <100 cfu/ml
- TVC cfu/ml Day 11 (Pseudomonas putida [5]): <100 cfu/ml
- TVC cfu/ml Day 13 (Pseudomonas putida [5]): <100 cfu/ml
